US8168860B2, “Compositions and methods for the modification of physiological responses in plants” (Rohm and Haas Company, priority 2007, dated 2012)

Tests used:
[1] = test system: transformed tobacco plants; assay: Triple response assay, shoot length of transformed tobacco shoots in dark with ethylene; format: in vivo; settings: tobacco plant 185-3 (VGE), induced, 10 μM inducer, ethylene about 10 ppm, 18 days
[2] = test system: Wild-type, ein2-5 and p1002 Arabidopsis transformant seedlings; assay: Triple response assay, Arabidopsis seedlings, root and hypocotyl growth with ethylene; format: in vivo; settings: for Roots (mm) Avg / Hypocotyls (mm) Avg: 11 days
Protocol: A triple response assay (Guzman and Ecker, 1990 cited above, modified as described below) was used to determine the modulation of ethylene sensitivity in the transformed Arabidopsis plants of Example 4. Arabidopsis seed was surface-sterilized and imbibed in 20 μM inducer in the dark for 4 days at 4° C. The seed was plated on 0.5× MS with 1% sucrose and 20 μM inducer and for mutant receptors treated with 10 ppm ethylene or 1 ppm ethylene for wild-type receptors and grown in the dark for 4-8 days at 21° C. The response to ethylene was scored on the last day.
Wild-type, ein2-5 (an ethylene insensitive mutant control), and p1002 Arabidopsis transformant seedlings were assayed for ethylene insensitivity using the triple response assay (Guzman and Ecker, 1990, cited above, with the following modifications) in which seeds were germinated on 0.5× MS media for 11 days in the dark in the presence of 10 ppm ethylene. Root and hypocotyl growth is inhibited by ethylene in ethylene sensitive but not in ethylene insensitive seedlings.

[3] = Arabidopsis, presence of inducer, 10 ppm ethylene
[4] = Ein2-5 seedlings, 20 μM inducer, 10 ppm ethylene, dark
[5] = WT seedlings, 20 μM inducer, 10 ppm ethylene, dark
[6] = p1002-1-4 seedlings, 20 μM inducer, 10 ppm ethylene, dark
[7] = p1002-3-4 seedlings, 20 μM inducer, 10 ppm ethylene, dark
[8] = p1002-11-3 seedlings, 20 μM inducer, 10 ppm ethylene, dark
[9] = p1002-23-2 seedlings, 20 μM inducer, 10 ppm ethylene, dark
[10] = p1002-24-4 seedlings, 20 μM inducer, 10 ppm ethylene, dark

SMILES: CCC(N(NC(=O)c1ccc2c(c1C)O[C@@H](CO)CO2)C(=O)c1cc(C)cc(C)c1)C(C)(C)C (stereo partly drawn) [inducer, 3,5 Dimethyl-benzoic acid N-(1-ethyl-2,2-dimethyl-propyl)-N′-(3S-hydroxymethyl-5-methyl-2,3-dihydro-benzo[1,4]dioxine-6-carbonyl)hydrazide]
- Shoot Length Avg (cm) [1]: 5.6 cm
- root length of most p1002 transformants versus wild-type or ein2 mutant seedlings ([2]; Arabidopsis, inducer in the presence of silver, 10 ppm ethylene): not significantly longer
- effect on hypocotyls of p1002 transformants [2, 3]: No effect was observed
- root length of p1002 transformants relative to wild-type seedlings [2, 3]: significantly longer
- Roots (mm) Avg ([2]; Ein2-5 seedlings, 20 μM inducer + 5 μM AgNO3, 10 ppm ethylene, dark): 12.4 mm
- Hypocotyls (mm) Avg [2, 4]: ~30 mm
- Roots (mm) Avg [2, 4]: 19.9 mm
- Roots (mm) Avg ([2]; WT seedlings, 20 μM inducer + 5 μM AgNO3, 10 ppm ethylene, dark): 13.9 mm
- Hypocotyls (mm) Avg [2, 5]: 12 mm
- Roots (mm) Avg [2, 5]: 3.92 mm
- Roots (mm) Avg ([2]; p1002-1-4 seedlings, 20 μM inducer + 5 μM AgNO3, 10 ppm ethylene, dark): 11.8 mm
- Hypocotyls (mm) Avg [2, 6]: 12.3 mm
- Roots (mm) Avg [2, 6]: 5.8 mm
- Roots (mm) Avg ([2]; p1002-3-4 seedlings, 20 μM inducer + 5 μM AgNO3, 10 ppm ethylene, dark): 17.4 mm
- Hypocotyls (mm) Avg [2, 7]: 12.7 mm
- Roots (mm) Avg [2, 7]: 6.7 mm
- Roots (mm) Avg ([2]; p1002-11-3 seedlings, 20 μM inducer + 5 μM AgNO3, 10 ppm ethylene, dark): 11.7 mm
- Hypocotyls (mm) Avg [2, 8]: 12.1 mm
- Roots (mm) Avg [2, 8]: 5.6 mm
- Roots (mm) Avg ([2]; p1002-23-2 seedlings, 20 μM inducer + 5 μM AgNO3, 10 ppm ethylene, dark): 10.5 mm
- Hypocotyls (mm) Avg [2, 9]: 12.1 mm
- Roots (mm) Avg [2, 9]: 6.04 mm
- Roots (mm) Avg ([2]; p1002-24-4 seedlings, 20 μM inducer + 5 μM AgNO3, 10 ppm ethylene, dark): 13.1 mm
- Hypocotyls (mm) Avg [2, 10]: 12.2 mm
- Roots (mm) Avg [2, 10]: 4.96 mm
- ethylene insensitivity, based on increased shoot length and/or altered root growth compared to non-induced transgenic plants ([2]; transgenic Arabidopsis with etr1-1 cassettes, 20 μM inducer, ethylene, dark, 4-8 days): demonstrated ethylene insensitivity
